This is an account of results in US12509424B2, “Compound and composition as PDGF receptor kinase inhibitor” (NIPPON SHINYAKU CO., LTD., priority 2019, dated 2025).

Read-outs that look alike come from different tables or passages of the source.

The target of one assay is PDGFR-β (Homo sapiens (Human), UniProt P09619). Description: PDGFR-β tyrosine kinase inhibitory action (HTRF KinEASE-TK). As to conditions: PDGFR-β enzyme 1 ng/μL, 30° C. for 30 minutes; read-out: PDGF-β IC50. The assay is classed as biochemical. As to the method: (§1) 1. Preparation of Test Substance
Chain of PDGFR-β (P09619 33-1106): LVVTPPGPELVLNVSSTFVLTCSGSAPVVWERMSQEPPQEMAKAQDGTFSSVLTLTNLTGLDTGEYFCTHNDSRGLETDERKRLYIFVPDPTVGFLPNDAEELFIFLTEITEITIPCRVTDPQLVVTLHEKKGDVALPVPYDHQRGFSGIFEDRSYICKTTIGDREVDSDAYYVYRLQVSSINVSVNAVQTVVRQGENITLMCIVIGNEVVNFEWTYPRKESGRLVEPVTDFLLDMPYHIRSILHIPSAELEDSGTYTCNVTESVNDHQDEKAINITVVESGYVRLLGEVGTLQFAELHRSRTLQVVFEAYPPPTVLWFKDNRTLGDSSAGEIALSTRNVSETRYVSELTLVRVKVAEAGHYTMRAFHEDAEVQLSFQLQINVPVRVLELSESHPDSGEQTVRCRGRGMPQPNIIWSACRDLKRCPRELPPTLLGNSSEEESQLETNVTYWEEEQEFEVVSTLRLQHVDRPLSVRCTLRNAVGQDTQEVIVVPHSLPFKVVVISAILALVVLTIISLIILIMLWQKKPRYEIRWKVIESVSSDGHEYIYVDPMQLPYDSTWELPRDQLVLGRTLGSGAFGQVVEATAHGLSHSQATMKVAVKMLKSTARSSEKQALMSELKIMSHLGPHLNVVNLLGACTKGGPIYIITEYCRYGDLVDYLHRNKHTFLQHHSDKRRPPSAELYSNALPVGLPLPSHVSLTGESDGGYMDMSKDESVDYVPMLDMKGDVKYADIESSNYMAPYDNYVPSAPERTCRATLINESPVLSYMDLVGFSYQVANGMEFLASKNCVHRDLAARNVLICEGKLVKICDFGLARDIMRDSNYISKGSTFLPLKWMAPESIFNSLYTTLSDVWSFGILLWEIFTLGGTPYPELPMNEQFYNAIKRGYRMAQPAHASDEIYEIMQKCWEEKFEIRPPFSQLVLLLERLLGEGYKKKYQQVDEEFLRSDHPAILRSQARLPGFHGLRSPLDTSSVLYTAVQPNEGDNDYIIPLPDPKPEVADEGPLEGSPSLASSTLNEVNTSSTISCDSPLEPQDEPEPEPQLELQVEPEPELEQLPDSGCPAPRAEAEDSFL
This DMSO solution was diluted by 8 times with an assay buffer 1 (50 mM HEPES (pH 7.0), 0.02% NaN3, 0.01% Bovine Serum Albumin, 0.1 mM orthovanadate, 1 mM Dithiothreitol, 5 mM MgCl2, and 1 mM MnCl2) and further diluted by 5 times with an assay buffer 2 (50 mM HEPES (pH 7.0), 0.02% NaN3, 0.01% Bovine Serum Albumin, 0.1 mM orthovanadate, 1 mM Dithiothreitol, 5 mM MgCl2, 1 mM MnCl2, and 40 nM Supplemented Enzymatic Buffer (cisbio)).
2. Measurement of PDGFR-β Tyrosine Kinase Inhibitory Action
For the measurement, the HTRF KinEASE-TK kit from Cisbio Bioassays SAS was used. To a 384 well plate, the test substance solution was added at 4 μL each, then 2 μL of a PDGFR-β enzyme solution (final concentration of 1 ng/μL, Carna Biosciences, Inc.) and 4 μL of a substrate solution obtained by adding 0.6 μM ATP to TK substrate-3-biotin (cisbio) were added, and the solution was allowed to react at 30° C. for 30 minutes at a final concentration of the test substance being 0.01 to 10,000 nM.
Thereafter, 10 μL of a detection solution (cisbio) was added to each well and allowed to react at 30° C. for 1 hour. The fluorescence intensity was measured with a microplate reader (Spectra Max M5, Molecular device).
(§2) 3. Analysis of Measurement Results
On the technique in general: In TR-FRET formats the signal depends on donor and acceptor labels being close together.

Assay [1] deals with pulmonary arterial smooth muscle cells. Description: Suppression of proliferation of pulmonary arterial smooth muscle cells (PDGF-BB stimulation, BrdU). The assay is classed as cell-based. As to conditions: healthy human derived pulmonary arterial smooth muscle cells, human PDGF-BB 10 ng/mL stimulation, BrdU uptake after 1 day, test substance final concentration 3 to 10,000 nM, read-out: Human normal PASMC proliferation suppression (PDGF stimulation_IC50). As to the method:
as §1
Furthermore, it was diluted by 50 times with distilled water.
2. Measurement of Suppression Action Against Proliferation of Pulmonary Arterial Smooth Muscle Cells
The day after healthy human derived pulmonary arterial smooth muscle cells were seeded onto a 96 well plate using a smooth muscle cell proliferation medium, the proliferation medium was replaced with a 0.1% FBS medium, and the cells were cultured for an additional day. A test substance solution was diluted by 10 times with a medium containing BrdU and human PDGF-BB (final concentration of 10 ng/mL, Sigma-Aldrich) and added to cells in equal amounts so as to reach a final concentration of 3 to 10,000 nM. Also, to the human PDGF-BB negative control, BrdU and 0.1% DMSO solution were added. After culturing for 1 day, the amount of BrdU taken up by the proliferating cells was measured using an anti-BrdU antibody.
as §2

`CNc1ncc(/C(F)=C/c2cc(C(=O)N[C@H]3CCCC[C@@H]3O)ccc2F)cn1` [Example 205, 4-fluoro-3-{(Z)-2-fluoro-2-[2-(methylamino)pyrimidin-5-yl]ethenyl}-N-[(1S,2S)-2-hydroxycyclohexyl]benzamide]: the IC50 is 0.13 µM on PDGFR-β and 0.16 µM in assay [1] (PASMC, 24 h).

As to `Cc1ncc(C(=O)N[C@H]2CCCC[C@@H]2O)cc1/C=C(\F)c1cncc(-c2ccccn2)c1` [Example 180, 5-[(Z)-2-([2,3′-bipyridin]-5′-yl)-2-fluoroethenyl]-N-[(1S,2S)-2-hydroxycyclohexyl]-6-methylpyridine-3-carboxamide], the IC50 at PDGFR-β is 0.016 µM; in assay [1] (PASMC, 24 h) it was 0.032 µM.

Take `Cc1ncc(C(=O)N[C@H]2CCCC[C@@H]2O)cc1NCc1cnn2ccccc12` [Example 123, N-[(1S,2S)-2-hydroxycyclohexyl]-6-methyl-5-{[(pyrazolo[1,5-a]pyridin-3-yl)methyl]amino}pyridine-3-carboxamide]: the IC50 came out at 0.21 µM at PDGFR-β and 0.29 µM in assay [1] (PASMC, 24 h).

With `Cc1ccc(C(=O)N[C@H]2CCCC[C@@H]2O)cc1NC(=O)c1cncc(OCC2(C)CC2)c1` [Example 53, N-(5-{[(1S,2S)-2-hydroxycyclohexyl]carbamoyl}-2-methylphenyl)-5-[(1-methylcyclopropyl)methoxy]pyridine-3-carboxamide], the IC50 on PDGFR-β is 0.012 µM; in assay [1] (PASMC, 24 h) it was 0.071 µM.

`O=C(N[C@H]1CCCC[C@@H]1O)c1ccc(F)c(/C=C(\F)c2cncc(-c3ncccn3)c2)c1` [Example 178, 4-fluoro-3-{(Z)-2-fluoro-2-[5-(pyrimidin-2-yl)pyridin-3-yl]ethenyl}-N-[(1S,2S)-2-hydroxycyclohexyl]benzamide]: the IC50 at PDGFR-β came out at 0.026 µM; in assay [1] (PASMC, 24 h), 0.044 µM.

With `Cc1ccc(C(=O)N[C@H]2CCCC[C@@H]2O)cc1NCc1ccc(NC(=O)C2CCOCC2)nc1` [Example 137, N-{5-[(5-{[(1S,2S)-2-hydroxycyclohexyl]carbamoyl}-2-methylanilino)methyl]pyridin-2-yl}oxane-4-carboxamide], the IC50 was found to be 0.041 µM on PDGFR-β and 0.06 µM in assay [1] (PASMC, 24 h).

As for `Cc1ccc(C(=O)N[C@H]2CCCC[C@@H]2O)cc1NC(=O)c1cncc(Oc2ccccn2)c1` [Example 51, N-(5-{[(1S,2S)-2-hydroxycyclohexyl]carbamoyl}-2-methylphenyl)-5-[(pyridin-2-yl)oxy]pyridine-3-carboxamide], the IC50 on PDGFR-β worked out at 0.061 µM; in assay [1] (PASMC, 24 h) it was 0.18 µM.

For the compound `Cc1ccc(C(=O)N[C@H]2CCCC[C@@H]2O)cc1NCc1ccc(-n2ccnn2)nc1` [Example 140, N-[(1S,2S)-2-hydroxycyclohexyl]-4-methyl-3-({[6-(1H-1,2,3-triazol-1-yl)pyridin-3-yl]methyl}amino)benzamide], the IC50 was found to be 0.33 µM at PDGFR-β and 0.043 µM in assay [1] (PASMC, 24 h).

Take `Cc1ccc(C(=O)N[C@H]2CCCC[C@@H]2O)cc1/C=C(\F)c1cnc2cccnn12` [Example 179, 3-[(Z)-2-fluoro-2-(imidazo[1,2-b]pyridazin-3-yl)ethenyl]-N-[(1S,2S)-2-hydroxycyclohexyl]-4-methylbenzamide]: the IC50 on PDGFR-β stood at 0.0059 µM; in assay [1] (PASMC, 24 h), 0.02 µM.

With `Cc1ccc(C(=O)N[C@H]2CCCC[C@@H]2O)cc1NCc1cncc(-n2nccn2)c1` [Example 145, N-[(1S,2S)-2-hydroxycyclohexyl]-4-methyl-3-({[5-(2H-1,2,3-triazol-2-yl)pyridin-3-yl]methyl}amino)benzamide], the IC50 on PDGFR-β is 0.1 µM; in assay [1] (PASMC, 24 h) it was 0.047 µM.

For `Nc1ncc(CNc2cc(C(=O)N[C@H]3CCCC[C@@H]3O)ccc2Cl)cn1` [Example 142, 3-{[(2-aminopyrimidin-5-yl)methyl]amino}-4-chloro-N-[(1S,2S)-2-hydroxycyclohexyl]benzamide], the IC50 was found to be 0.21 µM on PDGFR-β and 0.13 µM in assay [1] (PASMC, 24 h).

On to `Cc1ncc(C(=O)N[C@H]2CCCC[C@@H]2O)cc1/C=C(\F)c1ccc(NCC2CC2)nc1` [Example 199, 5-[(Z)-2-{6-[(cyclopropylmethyl)amino]pyridin-3-yl}-2-fluoroethenyl]-N-[(1S,2S)-2-hydroxycyclohexyl]-6-methylpyridine-3-carboxamide], for which the IC50 on PDGFR-β stood at 0.052 µM; in assay [1] (PASMC, 24 h) it was 0.07 µM.

In the case of `Cc1ccc(C(=O)N[C@H]2CCCC[C@@H]2O)cc1/C=C(\F)c1ccc(NCCN(C)C)nc1` [Example 197, 3-[(Z)-2-(6-{[2-(dimethylamino)ethyl]amino}pyridin-3-yl)-2-fluoroethenyl]-N-[(1S,2S)-2-hydroxycyclohexyl]-4-methylbenzamide], the IC50 at PDGFR-β stood at 0.12 µM; in assay [1] (PASMC, 24 h), 0.11 µM.

As to `Cc1ccc(C(=O)N[C@@H](CO)[C@@H](O)c2ccccc2)cc1N1CCc2nc(N)ncc2C1` [Example 83, 3-(2-amino-7,8-dihydropyrido[4,3-d]pyrimidin-6(5H)-yl)-N-[(1S,2S)-1,3-dihydroxy-1-phenylpropan-2-yl]-4-methylbenzamide], the IC50 on PDGFR-β is 0.005 µM; in assay [1] (PASMC, 24 h) it was 0.048 µM.

`Cc1ccc(C(=O)N[C@H]2CCCC[C@@H]2O)cc1NCc1cnc(NC2CCOCC2)nc1` [Example 132, N-[(1S,2S)-2-hydroxycyclohexyl]-4-methyl-3-[({2-[(oxan-4-yl)amino]pyrimidin-5-yl}methyl)amino]benzamide]: the IC50 on PDGFR-β was 0.072 µM; in assay [1] (PASMC, 24 h) it was 0.073 µM.

On to `Cc1ccc(C(=O)N[C@H]2CCCC[C@@H]2O)cc1/C=C(\F)c1cncc(CN2CCOCC2)c1` [Example 182, 3-[(Z)-2-fluoro-2-{5-[(morpholin-4-yl)methyl]pyridin-3-yl}ethenyl]-N-[(1S,2S)-2-hydroxycyclohexyl]-4-methylbenzamide], for which the IC50 on PDGFR-β turned out to be 0.033 µM; in assay [1] (PASMC, 24 h) it was 0.19 µM.

Take `O=C(N[C@H]1CCCC[C@@H]1O)c1ccc(Cl)c(COc2cncc(-c3ncccn3)c2)c1` [Example 170, 4-chloro-N-[(1S,2S)-2-hydroxycyclohexyl]-3-({[5-(pyrimidin-2-yl)pyridin-3-yl]oxy}methyl)benzamide]: the IC50 on PDGFR-β was 0.2 µM; in assay [1] (PASMC, 24 h) it was 0.13 µM.

Take `Cc1ccc(C(=O)N[C@H]2CCCC[C@@H]2O)cc1C#Cc1cncc(NCC2CC2)n1` [Example 72, 3-({6-[(cyclopropylmethyl)amino]pyrazin-2-yl}ethynyl)-N-[(1S,2S)-2-hydroxycyclohexyl]-4-methylbenzamide]: the IC50 on PDGFR-β was found to be 0.01 µM; in assay [1] (PASMC, 24 h) it was 0.07 µM.

Take `Cc1ccc(C(=O)N[C@H]2CCCC[C@@H]2O)cc1NC(=O)c1cncc(OCC2CC(F)(F)C2)c1` [Example 54, 5-[(3,3-difluorocyclobutyl)methoxy]-N-(5-{[(1S,2S)-2-hydroxycyclohexyl]carbamoyl}-2-methylphenyl)pyridine-3-carboxamide]: the IC50 was found to be 0.04 µM on PDGFR-β and 0.34 µM in assay [1] (PASMC, 24 h).

Regarding `Cc1ccc(C(=O)NCC(O)C(C)(C)C)cc1/C=C(\F)c1cncc(CN2CCN(C)CC2)c1` (stereo not shown) [Example 201, 3-[(Z)-2-fluoro-2-{5-[(4-methylpiperazin-1-yl)methyl]pyridin-3-yl}ethenyl]-N-(2-hydroxy-3,3-dimethylbutyl)-4-methylbenzamide], the IC50 at PDGFR-β was determined as 0.038 µM; in assay [1] (PASMC, 24 h), 0.12 µM.

On to `Cc1ccc(C(=O)N[C@H]2CCCC[C@@H]2O)cc1NCc1cncc(-c2cn3ccnc3cn2)c1` [Example 111, N-[(1S,2S)-2-hydroxycyclohexyl]-3-({[5-(imidazo[1,2-a]pyrazin-6-yl)pyridin-3-yl]methyl}amino)-4-methylbenzamide], for which the IC50 came to 0.15 µM at PDGFR-β and 0.38 µM in assay [1] (PASMC, 24 h).

For the compound `COc1ccc(-c2ncc(CNc3cc(C(=O)N[C@H]4CCCC[C@@H]4O)ccc3C)cn2)cc1` [Example 128, N-[(1S,2S)-2-hydroxycyclohexyl]-3-({[2-(4-methoxyphenyl)pyrimidin-5-yl]methyl}amino)-4-methylbenzamide], the IC50 at PDGFR-β is 0.18 µM; in assay [1] (PASMC, 24 h), 0.079 µM.

Consider `COC1CC(C(=O)Nc2ccc(CNc3cc(C(=O)N[C@H]4CCCC[C@@H]4O)ccc3C)cn2)C1` (stereo partly drawn) [Example 138, N-[(1S,2S)-2-hydroxycyclohexyl]-3-{[(6-{[(1r,3r)-3-methoxycyclobutane-1-carbonyl]amino}pyridin-3-yl)methyl]amino}-4-methylbenzamide], for which the IC50 at PDGFR-β is 0.016 µM; in assay [1], 0.051 µM.
